Laboratory results taken from US20080287477A1, “Novel Compounds as Modulators of Ppar” (KALYPSYS, INC., priority 2006, published 2008).

Legend:
Type in all cases: cell-based, murine and human
Settings in all cases: 20-24 hours treatment
[1] = molecular target: T1, PPAR-alpha (UniProt Q07869); experiment: Transient transfection transactivation assay in CV-1 cells, GAL4-PPAR-alpha chimera, luciferase reporter
T1 sequence (Q07869 1-468): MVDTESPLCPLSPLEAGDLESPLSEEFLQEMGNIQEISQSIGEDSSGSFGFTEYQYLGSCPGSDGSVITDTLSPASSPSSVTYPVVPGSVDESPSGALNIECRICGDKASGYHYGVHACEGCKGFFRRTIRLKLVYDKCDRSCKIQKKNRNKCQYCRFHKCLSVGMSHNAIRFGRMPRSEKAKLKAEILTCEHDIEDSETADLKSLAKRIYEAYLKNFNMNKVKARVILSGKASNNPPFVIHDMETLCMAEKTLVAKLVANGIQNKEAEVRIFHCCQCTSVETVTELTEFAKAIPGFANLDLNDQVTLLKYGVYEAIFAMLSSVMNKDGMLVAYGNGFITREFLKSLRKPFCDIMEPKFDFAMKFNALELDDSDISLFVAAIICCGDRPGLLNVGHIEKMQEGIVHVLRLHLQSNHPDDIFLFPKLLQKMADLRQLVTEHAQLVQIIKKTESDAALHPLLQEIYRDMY
Text: (§1) Compounds may be screened for functional potency in transient transfection assays in CV-1 cells for their ability to activate the PPAR subtypes (transactivation assay). A previously established chimeric receptor system was utilized to allow comparison of the relative transcriptional activity of the receptor subtypes on the same synthetic response element and to prevent endogenous receptor activation from complicating the interpretation of results. See, for example, Lehmann, J. M.; Moore, L. B.; Smith-Oliver, T. A: Wilkinson, W. O.; Willson, T. M.; Kliewer, S. A., An antidiabetic thiazolidinedione is a high affinity ligand for peroxisome proliferator-activated receptor […], J. Biol. Chem., 1995, 270, 12953-6. The ligand binding domains for murine and human PPAR-alpha, PPAR-gamma, and PPAR-delta are each fused to the yeast transcription factor GAL4 DNA binding domain. CV-1 cells were transiently transfected with expression vectors for the respective PPAR chimera along with a reporter construct containing four or five copies of the GAL4 DNA binding site driving expression of luciferase. After 8-16 h, the cells are replated into multi-well assay plates and the media is exchanged to phenol-red free DME medium supplemented with 5% delipidated coif serum. 4 hours after replating, cells were treated with either compounds or 1% DMSO for 20-24 hours. Luciferase activity was then assayed with Britelite (Perkin Elmer) following the manufacturer's protocol and measured with either the Perkin Elmer Viewlux or Molecular Devices Acquost (see, for example. Kliewer, S. A., et. al. Cell 1995, 83, 813-819). Rosiglitazone is used as a positive control in the PPARγ assay. Wy-14643 and GW7647 is used as a positive control in the […]. GW50156 is used as the positive control in the PPARδ assay.
Examples 1-20 were assayed to measure their biological activity with respect to their efficacy for modulating PPAR-alpha, PPAR-gamma, and PPAR-delta. EC50 values are set forth below in Table 1.

[2] = molecular target: T2, PPAR-delta (UniProt Q03181); experiment: Transient transfection transactivation assay in CV-1 cells, GAL4-PPAR-delta chimera, luciferase reporter
T2 sequence (Q03181 1-441): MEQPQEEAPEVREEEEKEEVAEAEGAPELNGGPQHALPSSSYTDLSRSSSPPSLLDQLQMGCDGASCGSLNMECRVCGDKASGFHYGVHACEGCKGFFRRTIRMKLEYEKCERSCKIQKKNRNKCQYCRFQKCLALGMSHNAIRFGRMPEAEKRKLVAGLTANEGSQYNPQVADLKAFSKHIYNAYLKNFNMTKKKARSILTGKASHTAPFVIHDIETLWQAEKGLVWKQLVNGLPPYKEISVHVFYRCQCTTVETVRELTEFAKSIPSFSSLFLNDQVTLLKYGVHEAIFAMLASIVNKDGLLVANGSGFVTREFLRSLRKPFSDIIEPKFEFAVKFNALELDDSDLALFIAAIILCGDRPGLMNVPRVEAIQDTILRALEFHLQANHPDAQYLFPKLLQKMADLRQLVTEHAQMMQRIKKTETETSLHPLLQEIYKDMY
Text: as §1
(§2) EC50 values are set forth below in Table 1.

[3] = molecular target: T3, PPAR-gamma (UniProt P37231); experiment: Transient transfection transactivation assay in CV-1 cells, GAL4-PPAR-gamma chimera, luciferase reporter
T3 sequence (P37231 1-505): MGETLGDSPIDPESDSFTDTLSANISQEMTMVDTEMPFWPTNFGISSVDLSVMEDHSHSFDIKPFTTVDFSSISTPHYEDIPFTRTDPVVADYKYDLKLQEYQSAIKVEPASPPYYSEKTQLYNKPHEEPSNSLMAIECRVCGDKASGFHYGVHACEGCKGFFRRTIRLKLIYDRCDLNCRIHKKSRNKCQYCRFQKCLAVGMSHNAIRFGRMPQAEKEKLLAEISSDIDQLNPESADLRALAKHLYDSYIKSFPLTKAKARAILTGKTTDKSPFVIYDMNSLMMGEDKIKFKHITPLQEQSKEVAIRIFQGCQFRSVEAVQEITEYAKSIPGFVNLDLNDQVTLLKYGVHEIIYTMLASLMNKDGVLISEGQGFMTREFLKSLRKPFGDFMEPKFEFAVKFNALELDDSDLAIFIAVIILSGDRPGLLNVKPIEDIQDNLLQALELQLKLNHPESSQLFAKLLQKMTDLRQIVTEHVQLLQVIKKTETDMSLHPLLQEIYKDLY
Text: as §1, §2

Row | Compound | EC50 [1] [µM] | EC50 [2] [µM] | EC50 [3] [µM]
1 | Cc1ccc(C(=NOCCN(C)S(=O)(=O)c2ccc(C)c(CC(=O)O)c2)c2ccc(C)cc2)cc1 [Example 20] | < 5 | < 5 | < 5
2 | CN(CCON=C(c1ccc(C(F)(F)F)cc1)c1ccc(C(F)(F)F)cc1)S(=O)(=O)c1cccc2c1CC(C(=O)O)C2 (stereo not drawn) [Example 18, 4-(N-(2-(bis(4-(trifluoromethyl)phenyl)methyleneaminooxy)ethyl)-N-methylsulfamoyl)-2,3-dihydro-1H-indene-2-carboxylic acid] | > 100 | < 5 | < 5
3 | Cc1ccc(S(=O)(=O)N(C)CCON=C(c2ccc(C(F)(F)F)cc2)c2ccc(C(F)(F)F)cc2)cc1CC(=O)O [Example 16] | < 5 | < 5 | < 5
4 | CCCc1c(OCCNS(=O)(=O)c2ccc3c(c2)CC(C(=O)O)C3)ccc(C(C)=O)c1O (stereo not drawn) [Example 12, 5-(N-(2-(4-Acetyl-3-hydroxy-2-propylphenoxy)ethyl)sulfamoyl)-2,3-dihydro-1H-indene-2-carboxylic acid] | 5 to 100 | 5 to 100 | 5 to 100
5 | CCCc1c(OCCNS(=O)(=O)c2cccc3c2CC(C(=O)O)C3)ccc(C(C)=O)c1O (stereo not drawn) [Example 11, 4-(N-(2-(4-Acetyl-3-hydroxy-2-propylphenoxy)ethyl)sulfamoyl)-2,3-dihydro-1H-indene-2-carboxylic acid] | > 100 | < 5 | < 5
6 | CCCc1c(OCCN(C)S(=O)(=O)c2cccc3c2CC(C(=O)O)C3)ccc2c(C(F)(F)F)noc12 (stereo not drawn) [Example 14, 4-(N-methyl-N-(2-(7-propyl-3-(trifluoromethyl)benzo[d]isoxazol-6-yloxy)ethyl)sulfamoyl)-2,3-dihydro-1H-indene-2-carboxylic acid] | < 5 | < 5 | < 5
7 | CCc1cnc(N(CCNS(=O)(=O)c2cccc3c2CC(C(=O)O)C3)Cc2ccc(OC(F)(F)F)cc2)nc1 (stereo not drawn) [Example 1, 4-{2-[(5-Ethyl-pyrimidin-2-yl)-(4-trifluoromethoxy-benzyl}-amino]-ethylsulfamoyl)-indan-2-carboxylic acid] | < 5 | < 5 | < 5
8 | CN(CCON=C(c1ccc(OC(F)(F)F)cc1)c1ccc(OC(F)(F)F)cc1)S(=O)(=O)c1cccc2c1CC(C(=O)O)C2 (stereo not drawn) [Example 19, 4-(N-(2-(bis(4-(trifluoromethoxy)phenyl)methyleneaminooxy)ethyl)-N-methylsulfamoyl)-2,3-dihydro-1H-indene-2-carboxylic acid] | > 100 | < 5 | < 5
9 | CCCCCN(CCNS(=O)(=O)c1cccc2c1CC(C(=O)O)C2)Cc1ccc(OC(F)(F)F)cc1 (stereo not drawn) [Example 3, 4-{2-[Pentyl-(4-trifluoromethoxy-benzyl)-amino]-ethylsulfamoyl}-indan-2-carboxylic acid] | < 5 | < 5 | < 5
10 | CCCCN(CCNS(=O)(=O)c1cc(C)cc(CC(=O)O)c1)Cc1ccc(OC(F)(F)F)cc1 [Example 6, (3-{2-[Butyl-(4-trifluoromethoxy-benzyl)-amino]-ethylsulfamoyl}-5-methyl-phenyl)-acetic acid] | < 5 | < 5 | < 5
11 | CCCCCN(CCNS(=O)(=O)c1cc(C)cc(CC(=O)O)c1)Cc1ccc(OC(F)(F)F)cc1 [Example 4] | < 5 | < 5 | < 5
12 | CCN(CCNS(=O)(=O)c1cc(C)cc(CC(=O)O)c1)Cc1ccc(OC(F)(F)F)cc1 [Example 5, (3-{2-[Ethyl-(4-trifluoromethoxy-benzyl}-amino]-ethylsulfamoyl)-5-methyl-phenyl)-acetic acid] | 5 to 100 | < 5 | < 5
13 | CCCCN(CCNS(=O)(=O)c1cccc2c1CC(C(=O)O)C2)Cc1ccc(OC(F)(F)F)cc1 (stereo not drawn) [Example 7, 4-{2-[Butyl-(4-trifluoromethoxy-benzyl)-amino]-ethylsulfamoyl}-indan-2-carboxylic acid] | < 5 | < 5 | < 5
14 | CCCc1c(OCCN(C)S(=O)(=O)c2ccc3c(c2)CC(C(=O)O)C3)ccc(C(C)=O)c1O (stereo not drawn) [Example 13] | > 100 | > 100 | 5 to 100
15 | CCc1cnc(N(CCNS(=O)(=O)c2cc(C)cc(CC(=O)O)c2)Cc2ccc(OC(F)(F)F)cc2)nc1 [Example 2, (3-{2-[(Ethyl-pyrimidin-2-yl)-(4-trifluoromethoxy-benzyl)-amino]-ethylsulfamoyl)-5-methyl-phenyl)-acetic acid] | < 5 | < 5 | < 5
16 | CCCc1c(OCCN(C)S(=O)(=O)c2ccc3c(c2)C(C(=O)O)CC3)ccc(C(C)=O)c1O (stereo not drawn) [Example 10, 6-(N-(2-(4-Acetyl-3-hydroxy-2-propylphenoxy)ethyl)-N-methylsulfamoyl)-2-dihydro-1H-indene-1-carboxylic acid] | < 5 | < 5 | < 5
17 | Cc1ccc(C(=NOCCN(C)S(=O)(=O)c2cccc3c2CC(C(=O)O)C3)c2ccc(C)cc2)cc1 (stereo not drawn) [Example 15, 4-(N-(2-(di-p-tolylmethyleneaminooxy)ethyl)-N-methylsulfamoyl)-2,3-dihydro-1H-indene-2-carboxylic acid] | > 100 | < 5 | > 100
18 | CCN(CCNS(=O)(=O)c1cccc2c1CC(C(=O)O)C2)Cc1ccc(OC(F)(F)F)cc1 (stereo not drawn) [Example 8] | < 5 | < 5 | < 5
19 | CCCc1c(OCCN(C)S(=O)(=O)c2cccc3c2CC(C(=O)O)C3)ccc(C(C)=O)c1O (stereo not drawn) [Example 9, 4-(N-(2-(4-Acetyl-3-hydroxy-2-propylphenoxy)ethyl)-N-methylsulfamoyl)-2,3-dihydro-1H-indene-2-carboxylic acid] | > 100 | < 5 | < 5
